This note sets out measurements from patent publication US20240368174A1, “Antiviral Heterocyclic Compounds” (Enanta Pharmaceuticals, Inc., priority 2023, published 2024).

The EC50 is the concentration needed to bring the measured effect to its halfway point. Read a high EC50 as weaker potency.

In this assay the test system is HMPV clinical isolate A2 strain TN 94-49. In words: HMPV antiviral assay, Method 2 (LLC-MK2 cells with CP-100-356, ATP-Lite). Type of assay: cell-based. As to conditions: human metapneumovirus; hMPV A2 TN/94-49, LLC-MK2 cells with CP-100-356, Method 2. The procedure, abridged: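 LLC-MK2 rhesus kidney cells (5,000/well) infected in suspension with HMPV A2 TN 94-49 at MOI 0.16, in serum-free medium with final 2 μg/mL TPCK-trypsin and 2 μM CP-100-356. Compounds tested in duplicate from 200 nM, 2.5-fold, 10 points; 7 days at 37 °C. Cell health by ATP-Lite luminescence; EC50 by four-parameter fit.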
As for `COc1cccc(-c2nc([C@@](O)(CNC(=O)c3cc(OC)c4nn(C5(F)CC5)cc4c3)c3ccccc3)cc3c2OC[C@]3(C)C(N)=O)c1Cl` [Example 374], the EC50 is less than 200 nM. `COc1c(F)ccc(-c2nc([C@@](O)(CNC(=O)c3cc(OC)c4nn(C5(F)CC5)cc4c3)c3ccccc3)cc3c2OC[C@]3(C)C(N)=O)c1Cl` [Example 375] returned a 50% effective concentration (EC50) of less than 200 nM. Molecule `COc1cc(C(=O)NC[C@@](O)(c2cccc(F)c2)c2cc3c(c(-c4ccncc4Cl)n2)OC[C@]3(C)C(N)=O)cc2cn(C3CC3)nc12` [Example 377] came in with an EC50 greater than 200 nM. Under `COc1cc(C(=O)NC[C@](O)(c2cc3c(c(-c4ccnc(F)c4F)n2)OC[C@]3(C)C(N)=O)C2CC2)cc2cn(C3CC3)nc12` [Example 381] stands less than 200 nM; under `COc1cc(C(=O)NC[C@](O)(c2cc3c(c(-c4cc(F)ncc4F)n2)OC[C@]3(C)C(N)=O)C2CC2)cc2cn(C3CC3)nc12` [Example 382], less than 200 nM; under `COc1cc(C(=O)NC[C@](O)(c2cc3c(c(-c4ccnc(F)c4C)n2)OC[C@]3(C)C(N)=O)C2CC2)cc2cn(C3CC3)nc12` [Example 383], less than 200 nM.

`COc1cc(C(=O)NC[C@](O)(c2cc3c(c(-c4cc(F)ncc4Cl)n2)OC[C@]3(C)C(N)=O)C2CC2)cc2cn(C3CC3)nc12` [Example 384] registered an EC50 of less than 200 nM. `COc1cc(C(=O)NC[C@](O)(c2cc3c(c(-c4ccc(SC(F)(F)F)cc4)n2)OC[C@]3(C)C(N)=O)C2CC2)cc2cn(C3CC3)nc12` [Example 386] registered an EC50 greater than 200 nM. The same measure for `COc1cc(C(=O)NC[C@](O)(c2cc3c(c(-c4ccnc(Cl)c4Cl)n2)OC[C@]3(C)C(N)=O)C2CC2)cc2cn(C3CC3)nc12` [Example 387]: less than 200 nM; for `COc1cc(-c2nc([C@@](O)(CNC(=O)c3cc(OC)c4nn(C5CC5)cc4c3)C3CC3)cc3c2OC[C@]3(C)C(N)=O)c(F)cn1` [Example 388]: less than 200 nM; for `COc1cc(C(=O)NC[C@](O)(c2cc3c(c(-c4cc(Cl)ncc4Cl)n2)OC[C@]3(C)C(N)=O)C2CC2)cc2cn(C3CC3)nc12` [Example 389]: less than 200 nM. Under `COc1cc(C(=O)NC[C@](O)(c2cc3c(c(-c4cc(C(F)(F)F)c(F)cc4F)n2)OC[C@]3(C)C(N)=O)C(F)(F)F)cc2cn(C3CC3)nc12` [Example 395] stands less than 200 nM.

In turn, `COc1cc(C(=O)NC[C@](O)(c2cc3c(c(-c4cc(C(F)F)c(F)cc4F)n2)OC[C@]3(C)C(N)=O)C(F)(F)F)cc2cn(C3CC3)nc12` [Example 396] displayed an EC50 of less than 200 nM. Take `COc1cc(C(=O)NC[C@@](O)(c2cccc(F)c2)c2cc3c(c(-c4ccc(C(C)(C)O)cc4)n2)OC[C@]3(C)C(N)=O)cc2cn(C3(F)CC3)nc12` [Example 397]: the EC50 is greater than 200 nM.

Turning to `COc1cc(C(=O)NC[C@](O)(c2cccc(F)c2)c2cc3c(c(-c4ccc(C(C)(C)O)cc4)n2)OC[C@]3(C)C(N)=O)cc2cn(C3(F)CC3)nc12` [Example 398], the EC50 was greater than 200 nM.

Molecule `COc1cc(C(=O)NCC(O)(c2cccc(F)c2)c2cc3c(c(-c4cccc(Cl)c4C#N)n2)OC[C@]3(C)C(N)=O)cc2cn(C3(F)CC3)nc12` (stereo partly shown) [Example 399] came in with an EC50 greater than 200 nM. Regarding `COc1cc(C(=O)NC[C@@](O)(c2cccc(F)c2)c2cc3c(c(-c4cc(F)c(F)cc4C(N)=O)n2)OC[C@]3(C)C(N)=O)cc2cn(C3(F)CC3)nc12` [Example 405], the EC50 was greater than 200 nM.

As to `COc1cc(C(=O)NC[C@](O)(c2cccc(F)c2)c2cc3c(c(-c4cc(F)c(F)cc4C(N)=O)n2)OC[C@]3(C)C(N)=O)cc2cn(C3(F)CC3)nc12` [Example 406], the EC50 is greater than 200 nM. On to `COc1cc(C(=O)NC[C@](O)(c2cccc(F)c2)c2cc3c(c(-c4cc(C(F)(F)F)ncc4F)n2)OC[C@]3(C)C(N)=O)cc2cn(C3CC3)nc12` [Example 409], for which the EC50 was greater than 200 nM. Molecule `COc1cc(C(=O)NC[C@](O)(c2cccc(F)c2)c2cc3c(c(-c4cc(Cl)ncc4F)n2)OC[C@]3(C)C(N)=O)cc2cn(C3CC3)nc12` [Example 411] returned an EC50 greater than 200 nM. As for `COc1cc(C(=O)NCC(O)(c2cc3c(c(-c4cc(C(F)(F)F)ncc4Cl)n2)OC[C@]3(C)C(N)=O)C2CC2)cc2cn(C3CC3)nc12` (stereo partly shown) [Example 418], the EC50 is greater than 200 nM. The molecule `COc1cc(C(=O)NC[C@](O)(c2cc3c(c(-c4ccnc(Cl)c4C)n2)OC[C@]3(C)C(N)=O)C2CC2)cc2cn(C3CC3)nc12` [Example 427] registered an EC50 of less than 200 nM. Turning to `COc1cc(C(=O)NC[C@](O)(c2cc3c(c(-c4ccnc(C)c4F)n2)OC[C@]3(C)C(N)=O)C2CC2)cc2cn(C3CC3)nc12` [Example 428], the EC50 was less than 200 nM. Under `COc1cc(C(=O)NC[C@](O)(c2cc3c(c(-c4ccnc5[nH]ccc45)n2)OC[C@]3(C)C(N)=O)C2CC2)cc2cn(C3CC3)nc12` [Example 429] stands greater than 200 nM; under `COc1cc(C(=O)NC[C@](O)(c2cc3c(c(-c4ccnc5ccccc45)n2)OC[C@]3(C)C(N)=O)C2CC2)cc2cn(C3CC3)nc12` [Example 430], less than 200 nM; under `COc1cc(C(=O)NC[C@](O)(c2cc3c(c(-c4c(C)cncc4C)n2)OC[C@]3(C)C(N)=O)C2CC2)cc2cn(C3CC3)nc12` [Example 431], less than 200 nM.

The molecule `COc1cc(C(=O)NC[C@](O)(c2cc3c(c(-c4cc(C5CC5)ncc4F)n2)OC[C@]3(C)C(N)=O)C2CC2)cc2cn(C3CC3)nc12` [Example 432] yielded an EC50 of less than 200 nM.

`COc1cc(C(=O)NC[C@](O)(c2cc3c(c(-c4c(F)cncc4F)n2)OC[C@]3(C)C(N)=O)C2CC2)cc2cn(C3CC3)nc12` [Example 433] returned an EC50 of less than 200 nM. In the case of `COc1cc(C(=O)NC[C@](O)(c2cc3c(c(-c4c(F)cncc4Cl)n2)OC[C@]3(C)C(N)=O)C2CC2)cc2cn(C3CC3)nc12` [Example 434], the EC50 is less than 200 nM. Regarding `COc1cc(C(=O)NC[C@](O)(c2cc3c(c(-c4c(C)cncc4F)n2)OC[C@]3(C)C(N)=O)C2CC2)cc2cn(C3CC3)nc12` [Example 435], the EC50 is less than 200 nM. `COc1cc(C(=O)NC[C@@](O)(c2cc3c(c(-n4ccc5ccccc54)n2)OC[C@]3(C)C(N)=O)C2CC2)cc2cn(C3CC3)nc12` [Example 444] returned an EC50 greater than 200 nM.

The molecule `COc1cc(C(=O)NC[C@](O)(c2cc3c(c(-n4ccc5cnccc54)n2)OC[C@]3(C)C(N)=O)C2CC2)cc2cn(C3CC3)nc12` [Example 447] registered an EC50 of less than 200 nM. The same measure for `COc1cc(C(=O)NC[C@](O)(c2cc3c(c(-n4ccc5ccncc54)n2)OC[C@]3(C)C(N)=O)C2CC2)cc2cn(C3CC3)nc12` [Example 448]: greater than 200 nM; for `COc1cc(C(=O)NC[C@](O)(c2cc3c(c(-n4ccc5ccccc54)n2)OC[C@]3(C)C(N)=O)C(F)(F)F)cc2cn(C(F)F)nc12` [Example 449]: less than 200 nM; for `COc1cc(C(=O)NC[C@](O)(c2cc3c(c(-c4cc(Cl)c(F)cc4F)n2)OC[C@]3(C)C(N)=O)c2nccn2C)cc2cn(C3CC3)nc12` [Example 464]: greater than 200 nM. Under `COc1cc(C(=O)NCC(O)(c2cc3c(c(-c4cc(Cl)c(F)cc4F)n2)OC[C@]3(C)C(N)=O)c2ccc(Cl)s2)cc2cn(C3CC3)nc12` (stereo partly shown) [Example 472] stands greater than 200 nM; under `COc1cc(C(=O)NC[C@@](O)(c2cnc(C3CC3)nc2)c2cc3c(c(-c4cc(Cl)c(F)cc4F)n2)OC[C@]3(C)C(N)=O)cc2cn(C3CC3)nc12` [Example 478], less than 200 nM. Turning to `COc1cc(C(=O)NC[C@@](O)(c2cncnc2)c2cc3c(c(-c4cc(Cl)c(F)cc4F)n2)OC[C@]3(C)C(N)=O)cc2cn(C3CC3)nc12` [Example 479], the EC50 is less than 200 nM.

As for `COc1cc(C(=O)NC[C@](O)(c2cc3c(c(-c4cc(Cl)c(F)cc4F)n2)OC[C@]3(C)C(N)=O)c2ccn(C)n2)cc2cn(C3CC3)nc12` [Example 480], the EC50 was less than 200 nM. The same measure for `COc1cc(C(=O)NC[C@](O)(c2cc3c(c(-c4cc(Cl)c(F)cc4F)n2)OC[C@]3(C)C(N)=O)c2ccnn2C)cc2cn(C3CC3)nc12` [Example 481]: less than 200 nM; for `COc1cc(C(=O)NC[C@@](O)(c2ccc(S(C)(=O)=O)cc2)c2cc3c(c(-c4cc(Cl)c(F)cc4F)n2)OC[C@]3(C)C(N)=O)cc2cn(C3CC3)nc12` [Example 482]: greater than 200 nM. With `COc1cc(C(=O)NC[C@@](O)(c2cccc(S(C)(=O)=O)c2)c2cc3c(c(-c4cc(Cl)c(F)cc4F)n2)OC[C@]3(C)C(N)=O)cc2cn(C3CC3)nc12` [Example 483], the EC50 was less than 200 nM.

Molecule `COc1cc(C(=O)NC[C@@](O)(c2ccnc(N)c2)c2cc3c(c(-c4cc(Cl)c(F)cc4F)n2)OC[C@]3(C)C(N)=O)cc2cn(C3CC3)nc12` [Example 484] came in with an EC50 of less than 200 nM. In the case of `COc1cc(C(=O)NC[C@@](O)(c2ccnc(C)c2)c2cc3c(c(-c4cc(Cl)c(F)cc4F)n2)OC[C@]3(C)C(N)=O)cc2cn(C3CC3)nc12` [Example 485], the EC50 is less than 200 nM.

In turn, `COc1cc(C(=O)NC[C@@](O)(c2cccc(S(N)(=O)=O)c2)c2cc3c(c(-c4cc(Cl)c(F)cc4F)n2)OC[C@]3(C)C(N)=O)cc2cn(C3CC3)nc12` [Example 486] had an EC50 greater than 200 nM.

In turn, `COc1cc(C(=O)NC[C@@](O)(c2cnccn2)c2cc3c(c(-c4cc(Cl)c(F)cc4F)n2)OC[C@]3(C)C(N)=O)cc2cn(C3CC3)nc12` [Example 487] registered a half-maximal effective concentration (EC50) of less than 200 nM. For the molecule `COc1cc(C(=O)NC[C@@](O)(c2cccc(C#N)c2)c2cc3c(c(-c4cc(Cl)c(F)cc4F)n2)OC[C@]3(C)C(N)=O)cc2cn(C3CC3)nc12` [Example 488], the EC50 was less than 200 nM.

Molecule `COc1cc(C(=O)NC[C@@](O)(c2cccc(Cl)n2)c2cc3c(c(-c4cc(Cl)c(F)cc4F)n2)OC[C@]3(C)C(N)=O)cc2cn(C3CC3)nc12` [Example 489] showed an EC50 of less than 200 nM. In the case of `CNc1cc([C@](O)(CNC(=O)c2cc(OC)c3nn(C4CC4)cc3c2)c2cc3c(c(-c4cc(Cl)c(F)cc4F)n2)OC[C@]3(C)C(N)=O)ccn1` [Example 490], the EC50 is less than 200 nM.
